Test results from patent publication US20040025201A1, “True breeding transgenics from plants heterozygous for transgene insertions” (New Zealand Institute for Crop & Food Research Lim, priority 1995, published 2004).

How the values were obtained:
Assay type in all cases: in vivo
[1] = test system: Brassica napus (30b) mutant; experiment: Experiment 1: segregation of chlorsulfuron resistance in selfed progeny of sprayed heterozygous plants
Source text: A homozygous line of a Brassica napus (30b) mutant, with a single gene conferring sulfonylurea resistance (Conner et al., Proceedings of the 47th New Zealand Plant Protection Conference, 173-177 (1994)), was used in this study. Brassica napus are self-fertile, with about 80% of the seed normally arising from self-pollination, although a greater degree of cross-pollination may occur when insect pollinators are abundant (Downey et al., Rapeseed and Mustard, Chapter 35:495-509, In Hybridization of Crop Plants, supra). B. napus is commonly referred to as canola, rape and oilseed rape.
The 30b mutant line was hybridized to a herbicide-sensitive genotype to generate a seed population heterozygous for sulfonylurea resistance. These heterozygous seeds were sown, repotted into individual pots in a greenhouse, and individuals were randomly divided into 3 populations:
(ii) plants sprayed once with chlorsulfuron (a sulfonylurea herbicide) at a rate of 3 mg/liter until runoff, just as the plants were beginning to bolt (development of flowering stems) (19 plants).
(iii) plants sprayed with chlorsulfuron at a rate of 3 mg./liter until runoff, just as the plants were beginning to bolt, and then every 2 weeks until initiation of plant senescence (18 plants).
(§1) The heterozygous plants were allowed to self pollinate and resulting seeds harvested at maturity. This next generation was screened for chlorsulfuron resistance as previously described (Conner et al. (1994). Briefly, this involved surface sterilizing the seeds (10-12 minutes in 1% sodium hypochlorite, plus a drop of Tween 20), followed by 2-3 rinses in sterile water, then sowing the seeds in vitro onto the surface of a medium consisting of half strength MS salts at pH 5.8 (Murashige and Skoog Physiologia Plantarum 15:473-497 (1962)) supplemented with 10 ug/liter chlorsulfuron and 6.5 g/liter agar. Seeds were then germinated at 24-26° C. under cool white fluorescent lights (80-100) umol/m2/sec; 16 h light: 8 h darkness daily).
(§2) Seeds generally germinated after 3-4 days and were scored for chlorsulfuron resistance 5-7 days after sowing. Resistant seedlings had long healthy roots (4-6 cm) that penetrated into the gelled medium, with healthy green cotyledons.

[2] = test system: Brassica napus mutant (19c); experiment: Experiment 2: segregation of chlorsulfuron resistance in selfed progeny of sprayed heterozygous plants
Experimental: as §1, §2
A further chlorsulfuron-resistant Brassica napus mutant (19c), of independent origin to mutant 30b (Conner et al., Proceedings of the 47th New Zealand Plant Protection Conference, 173-177 (1994)) was subjected to identical experiments described above for mutant 30b.

[3] = test system: Transgenic forage brassica plants (Brassica napus cv. Giant), line G/HR10; experiment: Experiment 3: segregation of GUS activity in selfed progeny of sprayed transgenic forage brassica; conditions: sprayed once prior to bolting, 20 g/ha
Source text: Plant line used: G/HR10 (Christey and Sinclair, Plant Science: 87 161-169 (1992)). This line contains a single insertion of the T-DNA from pKIWI110 and expresses transgenes conferring kanamycin resistance, β-glucuronidase (GUS) activity, and chlorsulfuron resistance.
Plants of the original transgenic line were cloned in vitro, then transferred to a containment greenhouse. […] The plants were allowed to self-pollinate and the seeds were harvested five months after spraying. The progeny germinated and histochemically screened for GUS activity.

[4] = test system: Transgenic potato plants (Solanum tuberosum cv. Iwa), line SCI1; experiment: Experiment 4: segregation of GUS activity in selfed progeny of sprayed transgenic potato; conditions: sprayed once three weeks after planting, 20 g/ha
Source text: The Solanum tuberosum, subspecies tuberosum, plant line used: SCI1 (Conner et al., Journal of Cellular Biochemistry 13D: 333 (1989)). This line of potato is transformed with the T-DNA from pKIWI100 and expresses transgenes conferring kanamycin resistance, β-glucuronidase (GUS) activity, and chlorsulfuron resistance. The cultivated varieties of potato grown in the United States and Europe are predominantly tetraploid (i.e., four complete sets of chromosomes) (Plaisted, R. L., Potato, Chapter 34:483-494, In Hybridization of Crop Plants, supra; Allard, pg. 6, supra.
Plants of the original transgenic line were vegetatively propagated via tubers which were planted in a containment greenhouse. Soon after sprouting (three weeks after planting) the plants were sprayed once with either water of chlorsulfuron at the equivalent rate of 20 g/ha Plants were self pollinated at flowering and berries harvested 15 weeks after spraying. Seeds were extracted and germinated, and the progeny histochemically screened for GUS activity.

[5] = test system: Brassica napus plants heterozygous for the chlorsulfuron-resistant mutation (wt×30b); experiment: Experiment 5 part (a): self-pollinated seed of heterozygous plants sprayed at varying times
Experimental: as §1, §2
(§3) To further explore the underlying reasons accounting for the induced skewed segregation, additional crosses using the 30b mutant were performed. At specified times the plants were sprayed with chlorsulfuron and the progeny evaluated as described in Experiment 1 above.
Part (a). Plants heterozygous for the chlorsulfuron-resistant mutation (wt×30b) were either not sprayed, or sprayed with chlorsulfuron at varying times during development. The self-pollinated seed was harvested, and the germinated seedlings were screened for chlorsulfuron resistance.

[6] = test system: Brassica napus plants heterozygous for the chlorsulfuron-resistant mutation (wt×30b); experiment: Experiment 5 part (b): back-crossed progeny ((wt×30b)×wt) of sprayed ovule parent
Experimental: as §1, §2, §3
Part (b). Plants heterozygous for the chlorsulfuron-resistant mutation (wt×30b) were either not sprayed, or sprayed with chlorsulfuron at varying times during development. The back crossed-progeny ((wt×30b)×wt), resulting from pollen from non-sprayed wildtype plants were screened for chlorsulfuron resistance as described in Experiment 1.

[7] = test system: Brassica napus plants heterozygous for the chlorsulfuron-resistant mutation (wt×30b); experiment: Experiment 5 part (c): back-crossed progeny (wt×(wt×30b)) of sprayed pollen parent; conditions: pollen parent sprayed just prior to bolting
Experimental: as §1, §2, §3
Part (c). Plants heterozygous for the chlorsulfuron-resistant mutation (wt×30b) were either not sprayed, or sprayed with chlorsulfuron just prior to bolting. The pollen from these plants was back-crossed to non-sprayed wildtype plants, and the resulting progeny (wt×(wt×30b)) were screened for chlorsulfuron resistance as described in Experiment 1.

[8] = test system: Brassica napus plants heterozygous for the chlorsulfuron-resistant mutation (wt×30b); experiment: Experiment 5 part (d): back-crossed progeny ((wt×30b)×30b) of sprayed female parent; conditions: heterozygous female parent sprayed just prior to bolting
Experimental: as §1, §2, §3
Part (d). Plants heterozygous for the chlorsulfuron-resistant mutation (wt×30b) were either not sprayed, or sprayed with chlorsulfuron just prior to bolting. […]

[9] = total of 18 plants repeatedly sprayed
[10] = total of 19 plants sprayed once
[11] = sprayed 2 weeks after pods full size
[12] = sprayed at pods reaching full size
[13] = sprayed at seedlings (2-3 leaves)

COc1nc(C)nc(NC(=O)NS(=O)(=O)c2ccccc2Cl)n1 [chlorsulfuron]
Resistance of progeny of sprayed heterozygous plants (in words) ([1]; both spray regimes): virtually all the progeny obtained were resistant to chlorsulfuron | Number of herbicide-resistant progeny, Total [1, 9]: 728 | Number of herbicide-sensitive progeny, Total [1, 9]: 2 | Number of herbicide-resistant progeny, Total [1, 10]: 1588 | Number of herbicide-sensitive progeny, Total [1, 10]: 17 | Number of herbicide-resistant seedlings ([2]; repeated fortnightly sprays from bolting): 96 | Number of herbicide-resistant seedlings ([2]; sprayed just prior to bolting): 398 | Number of herbicide-sensitive seedlings ([2]; sprayed just prior to bolting): 31 | GUS-negative progeny ([3]; Population A): 13 | GUS-positive progeny ([3]; Population A): 78 | GUS-negative progeny ([3]; Population B): 16 | GUS-positive progeny ([3]; Population B): 96 | GUS-negative progeny [4]: 12 | GUS-positive progeny [4]: 136 | Number of herbicide-resistant seedlings [5, 11]: 184 | Number of herbicide-sensitive seedlings [5, 11]: 26 | Number of seeds per pod [5, 11]: 6.2 | Number of herbicide-resistant seedlings [5, 12]: 160 | Number of herbicide-sensitive seedlings [5, 12]: 16 | Number of seeds per pod [5, 12]: 5.8 | Number of herbicide-resistant seedlings [5, 13]: 440 | Number of herbicide-sensitive seedlings [5, 13]: 11 | Number of seeds per pod [5, 13]: 5.6 | Number of herbicide-resistant seedlings ([5]; sprayed just prior to bolting): 565 | Number of herbicide-sensitive seedlings ([5]; sprayed just prior to bolting): 5 | Number of seeds per pod ([5]; sprayed just prior to bolting): 5.4 | Number of herbicide-resistant seedlings [6, 11]: 104 | Number of herbicide-sensitive seedlings [6, 11]: 37 | Number of seeds per pod [6, 11]: 4.3 | Number of herbicide-resistant seedlings [6, 12]: 127 | Number of herbicide-sensitive seedlings [6, 12]: 28 | Number of seeds per pod [6, 12]: 4.0 | Number of herbicide-resistant seedlings ([6]; sprayed just prior to bolting): 134 | Number of herbicide-sensitive seedlings ([6]; sprayed just prior to bolting): 5 | Number of seeds per pod ([6]; sprayed just prior to bolting): 3.4 | Number of herbicide-resistant seedlings [7]: 381 | Number of herbicide-sensitive seedlings [7]: 112 | Number of seeds per pod [7]: 6.3 | Number herbicide-sensitive seedlings [8]: 0 | Number of herbicide-resistant seedlings [8]: 111
